Assays:
[1] = at higher concentrations
hAChE = hAChE (Homo sapiens, UniProt P22303)
AgAChE1 = AgAChE1 (Anopheles gambiae, UniProt Q869C3)
AgAChE1, sequence (Q869C3 39-737): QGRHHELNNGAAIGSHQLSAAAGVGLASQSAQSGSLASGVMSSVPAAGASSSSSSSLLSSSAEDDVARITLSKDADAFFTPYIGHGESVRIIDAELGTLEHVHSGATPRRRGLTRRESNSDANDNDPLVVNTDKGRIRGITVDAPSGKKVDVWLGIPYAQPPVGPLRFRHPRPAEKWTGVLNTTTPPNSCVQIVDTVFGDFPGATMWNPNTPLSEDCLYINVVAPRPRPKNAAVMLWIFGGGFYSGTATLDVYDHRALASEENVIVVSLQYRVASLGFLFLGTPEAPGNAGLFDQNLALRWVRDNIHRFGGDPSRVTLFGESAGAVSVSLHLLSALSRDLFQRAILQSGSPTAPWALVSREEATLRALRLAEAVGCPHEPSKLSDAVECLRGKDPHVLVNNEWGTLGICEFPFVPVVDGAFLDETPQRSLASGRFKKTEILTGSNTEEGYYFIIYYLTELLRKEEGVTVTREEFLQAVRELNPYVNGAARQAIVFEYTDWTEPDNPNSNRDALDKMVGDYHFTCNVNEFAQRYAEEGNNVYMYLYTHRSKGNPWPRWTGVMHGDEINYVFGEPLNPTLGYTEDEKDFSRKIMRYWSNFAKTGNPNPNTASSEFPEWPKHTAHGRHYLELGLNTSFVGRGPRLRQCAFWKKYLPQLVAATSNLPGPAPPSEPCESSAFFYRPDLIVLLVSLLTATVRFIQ

hAChE, sequence (P22303 32-614): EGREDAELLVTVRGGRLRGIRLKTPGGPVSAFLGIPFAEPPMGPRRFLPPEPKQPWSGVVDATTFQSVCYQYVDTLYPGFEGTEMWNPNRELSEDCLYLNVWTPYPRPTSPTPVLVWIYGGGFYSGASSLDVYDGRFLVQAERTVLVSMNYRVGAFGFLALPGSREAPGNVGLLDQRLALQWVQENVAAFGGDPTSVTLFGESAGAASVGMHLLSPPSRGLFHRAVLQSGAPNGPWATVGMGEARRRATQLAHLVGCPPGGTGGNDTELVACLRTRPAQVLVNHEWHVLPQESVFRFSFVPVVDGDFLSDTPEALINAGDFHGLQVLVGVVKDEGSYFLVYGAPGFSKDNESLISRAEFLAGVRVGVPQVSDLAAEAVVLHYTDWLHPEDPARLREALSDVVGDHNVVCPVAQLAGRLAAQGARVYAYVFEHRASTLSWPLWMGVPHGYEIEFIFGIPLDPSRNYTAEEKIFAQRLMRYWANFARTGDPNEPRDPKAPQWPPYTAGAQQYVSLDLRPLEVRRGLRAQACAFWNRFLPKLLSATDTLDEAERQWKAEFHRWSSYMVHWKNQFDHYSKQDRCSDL

SMILES: CN(C)CCCN1C(=O)CSC1c1cccc2ccccc12.Cl (stereo not drawn) [compound 36, 3-(3-(Dimethylamino)propyl)-2-(naphthalen-1-yl)thiazolidin-4-one Hydrochloride]
- solubility [1]: reduced its solubility at higher concentrations

SMILES: CN(C)CCN1C(=O)CSC1c1cccc(F)c1F.Cl (stereo not drawn) [compound 39, 2-(2,3-Difluorophenyl)-3-(2-(dimethylamino)ethyl)thiazolidin-4-one Hydrochloride]
- activity against hAChE (hAChE): inactive

SMILES: CNCCN1C(=O)CSC1c1cccc2ccccc12.Cl (stereo not drawn) [compound 54, N-Methyl-2-(2-(naphthalen-1-yl)-4-oxothiazolidin-3-yl)ethan-1-aminium Chloride]
- times weaker binders than their tertiary amine analogues (AgAChE1): over 10 times

SMILES: CN(C)CCN1C(=O)CSC1c1ccc(Cl)cc1Cl.Cl (stereo not drawn) [compound 38, 2-(2,4-Dichlorophenyl)-3-(2-(dimethylamino)ethyl)thiazolidin-4-one Hydrochloride]
- activity against hAChE (hAChE): inactive

SMILES: CN(C)CCN1C(=O)CSC1c1ccc(F)cc1.Cl (stereo not drawn) [compound 37, 3-(2-(Dimethylamino)ethyl)-2-(4-fluorophenyl)thiazolidin-4-one Hydrochloride]
- activity against hAChE (hAChE): inactive

SMILES: CN(C)CCN1C(=O)CSC1c1cccc2ccccc12.Cl (stereo not drawn) [compound 40, 3-(2-(Dimethylamino)ethyl)-2-(naphthalen-1-yl)thiazolidin-4-one Hydrochloride]
- activity against hAChE (hAChE): inactive

SMILES: [N-]=[N+]=NCCCN1C(=O)CSC1c1ccccc1 (stereo not drawn) [compound 17, 3-(3-Azidopropyl)-2-phenylthiazolidin-4-one]
- IC50 (μM) AgAChE1 (AgAChE1): Inactive
- inhibitory activity towards AgAChE1 (AgAChE1): no detectable inhibitory activity

SMILES: Cl.O=C1CSC(c2ccc(F)cc2)N1CCNC1CC1 (stereo not drawn) [compound 49, 3-(2-(Cyclopropylamino)ethyl)-2-(4-fluorophenyl)thiazolidin-4-one Hydrochloride]
- loss of potency vs 3-carbon chain dimethylamine analogue (AgAChE1): 13 fold

SMILES: CC(C)NCCN1C(=O)CSC1c1cccc2ccccc12.Cl (stereo not drawn) [compound 43, 3-(2-(Isopropylamino)ethyl)-2-(naphthalen-1-yl)thiazolidin-4-one Hydrochloride]
- times weaker binders than their tertiary amine analogues (AgAChE1): over 10 times

SMILES: O=C1CSC(c2ccccc2)N1CCc1ccc(F)cc1 (stereo not drawn) [compound 9, 3-(4-Fluorophenethyl)-2-phenylthiazolidin-4-one]
- IC50 (μM) AgAChE1 (AgAChE1): Inactive
- inhibitory activity towards AgAChE1 (AgAChE1): no detectable inhibitory activity

— publication PMC10184127 (Journal of Medicinal Chemistry, 2023)
